The test system of test [1] is P. acnes PRP-003. The experiment in a line: Disc diffusion assay (DDA), also supplemented. It counts as cell-based, Propionibacterium acnes. The following applies: 200 μg per disc. In general terms: In agar diffusion tests the substance spreads into inoculated agar from a disc or well.
Experimental: (§1) The propionibacteria were cultured and maintained on Wilkins-Chalgren Anaerobe Medium (agar and broth) at pH 6.0; all cultures were incubated anaerobically at 37° C. for 72 hours.
(§2) A sterile paper disc was impregnated with a sample of the test compound in a suitable solvent and 30 minutes allowed for the solvents to evaporate (where possible). The disc was then placed on an agar plate onto which the test micro-organism had been inoculated. The plate was then incubated under the conditions described above, following which it was examined visually for signs of bacterial growth. […] The diameter of this zone of “inhibition” was measured using a ProtoCOL™ automated zone sizer (Synbiosis, Cambridge, UK).
(§3) For assays using Propionibacterium spp. strains the supplements used in the examples below were lipid (either Tween™ 80 or triolein, both at 1% v/v) and sodium chloride (100 mM).
Test [2] deals with P. granulosum PRP-044. The experiment in a line: Disc diffusion assay (DDA), also supplemented. It counts as cell-based. The note with it: 200 μg per disc.
Experimental: as §1, §2, §3
Test [3] has as its system P. acnes NCTC 737. The experiment in a line: Disc diffusion assay (DDA), also supplemented.
Experimental: as §1
(d) Disc Diffusion Assay (DDA)
as §2
(f) Supplemented Disc Diffusion Assays
as §3
Test [4] has as its system S. aureus ATCC 29213. The experiment in a line: Synergy disc diffusion assay (SDDA), also supplemented.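 Note: disc diffusion on Mueller-Hinton agar at pH 7.2, aerobic incubation at 37 °C lasting 19-20 h, two compounds assessed jointly for combined antimicrobial effect.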
Experimental: (e) Synergy Disc Diffusion Assay (SDDA)
This is a variation on the DDA method, in which two compounds are tested together for their combined antimicrobial activity.
Two test compounds A and B were placed on a single paper disc and the above described DDA procedure repeated.
(f) Supplemented Disc Diffusion Assays
For assays using S. aureus ATCC 29213 the supplements used were sodium chloride (100 mM), lipid (Tween™ 80 at 1% v/v) and horse serum (5% v/v).

“And” between values parts separate entries of the source, which are not always exact repeats. Equal entries are not always repeated.
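Throughout, for DDA + salt & lipid: paper disc carrying compound placed on inoculated Wilkins-Chalgren Anaerobe agar pH 6.0, with lipid or NaCl supplement where listed, anaerobic 37 °C for 72 h, inhibition zone diameter read.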

With `O.O.O.O.O.O=S(=O)([O-])[O-].[Cu+2]` [Copper (II) sulphate pentahydrate], the “DDA + salt” value came to 51.99 mm in test [1], 31.92 mm in test [2] and 50.28 mm in test [3]. In addition, the “DDA + lipid” value in test [1] (1% (v/v) triolein) is on record as 45.91 mm; in test [2] (1% (v/v) triolein) it was 26.45 mm; in test [3] it was 44.03 mm. For the same compound, the DDA in test [1] (single replicate) was 52.60 mm; in test [1] (Table 12 series) it was 50.18 mm; in test [2] (single replicate), 27.36 mm; in test [2] (Table 12 series), 27.81 mm; in test [3], 49.75 mm and 42.05 (±1.16) mm. In addition, in test [3], the “DDA + salt & lipid” value is 49.96 mm and 49.54 (±1.34) mm. In test [4], the SDDA area increase is on record as 88.33%. For the same compound, the SDDA increase in test [4] worked out at 15.05 mm. Also, the “SDDA with TBHQ” value in test [4] worked out at 55.47 mm. Also, the “SS SDDA area increase” value in test [4] is 10.90%. Besides, the “SS SDDA increase” value in test [4] is recorded as 2.32 mm. Also, the “SS SDDA with TBHQ” value in test [4] stood at 46.00 mm.

The values above are taken from patent publication US20090246292A1, “ANTIMICROBIAL FORMULATIONS COMPRISING A QUINONE AND A COPPER SALT” (priority 2006, published 2009).
